Data from patent US11149011B2, “Compounds and methods for IDO and TDO modulation, and indications therefor” (Plexxikon Inc., priority 2018, dated 2021).

Columns and labels:
[1] = target: T1, IDO1 (Homo sapiens, UniProt P14902); experiment: IDO enzymatic assay; format: biochemical; conditions: geometric mean; read-out: IDO1 GMean: IC50 (μM) (Biochemical Assay)
T1 construct: His tag (N); made in house; host or cells: E. coli
Method: (§1) Human IDO or TDO with N-terminal His tag is purified in E. coli. The IDO enzymatic assay is performed using 6 nM IDO and 10 μM L-Trp in the presence of 10 mM ascorbic acid, 5 μM methylene blue, 100 nM catalase and 0.01% Tween 20 in 50 mM sodium phosphate buffer (pH 6.5). 19 μL of above reaction mixture is added to wells of 384 well reaction plate containing 1 μL of various concentrations of test compound or DMSO vehicle and incubated for 20 minutes at room temperature. The TDO enzymatic reaction assay is performed using 1 nM TDO and 350 μM L-Trp in the presence of 10 mM ascorbic acid, 0.4 μM methylene blue, 100 nM catalase and 0.01% Tween 20 in 50 mM sodium phosphate buffer (pH 6.5). 19 μL of above reaction mixture is added to wells of 384 well reaction plate containing 1 μL of various concentrations of test compound or DMSO vehicle and incubated for 70 minutes at room temperature. 16 wells containing all the components of reaction mixture and 5% DMSO serve as high control. 16 well containing all the components except enzyme of reaction mixture and 5% DMSO serves as low control. Both IDO and TDO enzymatic reactions are stopped by addition of 4 μL of 30% TCA and incubated 30 minutes at 50° C. to hydrolyze N-formylkynurenine produced by IDO or TDO to kynurenine. Upon measuring the kynurenine level, the percentage inhibition is calculated at individual concentrations relative to high and low controls. The data is analyzed by using nonlinear regression to generate IC50 values.

[2] = target: T2, TDO (Homo sapiens, UniProt P48775); experiment: TDO enzymatic assay; conditions: geometric mean; read-out: TDO GMean: IC50 (μM) (Biochemical Assay)
T2 construct: His tag (N); made in house; host or cells: E. coli
T2 sequence (P48775 whole entry): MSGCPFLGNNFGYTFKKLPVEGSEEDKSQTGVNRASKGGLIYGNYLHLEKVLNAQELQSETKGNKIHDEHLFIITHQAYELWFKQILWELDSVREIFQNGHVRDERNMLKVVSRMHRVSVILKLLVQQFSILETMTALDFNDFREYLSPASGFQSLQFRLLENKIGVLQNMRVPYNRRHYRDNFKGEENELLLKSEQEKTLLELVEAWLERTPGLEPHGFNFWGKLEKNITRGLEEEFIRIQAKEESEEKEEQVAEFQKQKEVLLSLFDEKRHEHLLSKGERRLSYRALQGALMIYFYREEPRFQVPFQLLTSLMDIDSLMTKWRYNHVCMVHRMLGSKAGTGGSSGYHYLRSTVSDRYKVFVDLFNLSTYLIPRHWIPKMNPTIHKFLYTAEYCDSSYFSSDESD
Method: as §1

[3] = target: T3, IDO1-expressing HEK293 cell clones (Homo sapiens, UniProt P14902); experiment: Cell based kynurenine assay, IDO1-expressing HEK293 cell clones; conditions: HEK293 cells, 24 hours of incubation, geometric mean; read-out: HEK293 IDO1 Kynurenine GMean IC50 (μM) (Cellular Assay)
T3 construct: expressed in transfected cells; host or cells: HEK293
T3 sequence (P14902 whole entry): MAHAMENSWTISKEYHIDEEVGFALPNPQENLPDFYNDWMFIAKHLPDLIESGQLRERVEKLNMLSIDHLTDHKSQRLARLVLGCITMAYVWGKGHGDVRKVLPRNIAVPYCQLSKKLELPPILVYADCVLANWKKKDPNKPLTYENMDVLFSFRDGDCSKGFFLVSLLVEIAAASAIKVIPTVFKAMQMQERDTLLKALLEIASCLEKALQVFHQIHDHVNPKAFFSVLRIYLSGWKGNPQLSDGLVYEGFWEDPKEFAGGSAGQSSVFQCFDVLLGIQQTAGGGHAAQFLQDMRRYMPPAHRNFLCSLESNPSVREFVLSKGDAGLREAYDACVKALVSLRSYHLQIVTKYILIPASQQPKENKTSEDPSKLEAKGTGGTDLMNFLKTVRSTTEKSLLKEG
Method: (§2) IDO1-expressing or TDO-expressing HEK293 cell clones are generated upon stable transfection of plasmids expressing human IDO or human TDO under the control of CMV promoter. Cells are selected in DMEM media supplemented with 10% fetal bovine serum and 1 mg/ml G418 at 37° C. in a humidified incubator supplied with 5% CO2. The assays are performed as follows.
(§3) Cells were seeded in a 96 well plate in 50 μL of culture media at a density of 2.5×10^4 per well. Serial dilutions of compounds (in total volume of 50 μL culture media) are added into cells. 4 wells containing 0.2% DMSO treated cells serve as high controls and 4 wells containing media only with 0.2% DMSO serve as low controls. After 24 hours of incubation, the supernatant was transferred to a 384 well reaction plate and the kynurenine level determined. The percentage inhibition at individual concentrations relative to high and low controls is calculated. The data is analyzed by using nonlinear regression to generate IC50 values.

[4] = target: T4, TDO-expressing HEK293 cell clones (Homo sapiens, UniProt P48775); experiment: Cell based kynurenine assay, TDO-expressing HEK293 cell clones; conditions: HEK293 cells, 24 hours of incubation, geometric mean; read-out: HEK293 TDO Kynurenine GMean IC50 (μM) (Cellular Assay)
T4 construct: expressed in transfected cells; host or cells: HEK293
T4 sequence (P48775 whole entry): as the sequence (P48775 whole entry) above
Method: as §2, §3

T1 sequence (P14902 whole entry): as the sequence (P14902 whole entry) above

Row | IC50 [1] [µM] | IC50 [2] [µM] | IC50 [3] [µM] | IC50 [4] [µM] | SMILES
1 | 0.0001 to 10 | 0.0001 to 10 | 0.0001 to 10 | 0.0001 to 10 | CC(C)(C1CCN(C(=O)C2CCOCC2)CC1)C(O)c1cc(Cl)cc2[nH]ncc12 (centres unmarked) [Compound P-0048, (4-(1-(6-chloro-1H-indazol-4-yl)-1-hydroxy-2-methylpropan-2-yl)piperidin-1-yl)(tetrahydro-2H-pyran-4-yl)methanone]
2 | 0.0001 to 10 | 0.0001 to 10 | 0.0001 to 10 | 0.0001 to 10 | COCC(=O)N1CCC(C(C)(C)C(O)c2cc(Cl)cc3[nH]ncc23)CC1 (centres unmarked) [Compound P-0049, 1-(4-(1-(6-chloro-1H-indazol-4-yl)-1-hydroxy-2-methylpropan-2-yl)piperidin-1-yl)-2-methoxyethan-1-one]
3 | 0.0001 to 10 | 0.0001 to 10 | 0.0001 to 10 | 0.0001 to 10 | CC(C)(C1CCN(C(=O)CC2CCOCC2)CC1)C(O)c1cc(Cl)cc2[nH]ncc12 (centres unmarked) [Compound P-0050, 1-(4-(1-(6-chloro-1H-indazol-4-yl)-1-hydroxy-2-methylpropan-2-yl)piperidin-1-yl)-2-(tetrahydro-2H-pyran-4-yl)ethan-1-one]
4 | 0.0001 to 10 | 0.0001 to 10 | 0.0001 to 10 | 0.0001 to 10 | CC(C)(C1CCN(C(=O)CC(F)(F)F)CC1)C(O)c1cc(Cl)cc2[nH]ncc12 (centres unmarked) [Compound P-0051, 1-(4-(1-(6-chloro-1H-indazol-4-yl)-1-hydroxy-2-methylpropan-2-yl)piperidin-1-yl)-3,3,3-trifluoropropan-1-one]
5 | 0.0001 to 10 | 0.0001 to 10 | 0.0001 to 10 | 0.0001 to 10 | CC(C)(C1CCN(C(=O)C2CCC2)CC1)C(O)c1cc(Cl)cc2[nH]ncc12 (centres unmarked) [Compound P-0052, (4-(1-(6-chloro-1H-indazol-4-yl)-1-hydroxy-2-methylpropan-2-yl)piperidin-1-yl)(cyclobutyl)methanone]
6 | 0.0001 to 10 | 0.0001 to 10 | 0.0001 to 10 | 0.0001 to 10 | CC(C)(C1CCN(C(=O)c2ccc(C(F)(F)F)nc2)CC1)C(O)c1cc(Cl)cc2[nH]ncc12 (centres unmarked) [Compound P-0053, (4-(1-(6-chloro-1H-indazol-4-yl)-1-hydroxy-2-methylpropan-2-yl)piperidin-1-yl)(6-(trifluoromethyl)pyridin-3-yl)methanone]
7 | 0.0001 to 10 | 0.0001 to 10 | 0.0001 to 10 | 0.0001 to 10 | CCN(CC)CC(=O)N1CCC(C(C)(C)[C@H](O)c2cc(Cl)cc3cn[nH]c23)CC1 [Compound P-0058, (S)-1-(4-(1-(5-chloro-1H-indazol-7-yl)-1-hydroxy-2-methylpropan-2-yl)piperidin-1-yl)-2-(diethylamino)ethan-1-one]
8 | 0.0001 to 10 | 0.0001 to 10 | 0.0001 to 10 | 0.0001 to 10 | CC(C)(C1CCN(C(=O)CN2CCCC2)CC1)[C@H](O)c1cc(Cl)cc2cn[nH]c12 [Compound P-0059, (S)-1-(4-(1-(5-chloro-1H-indazol-7-yl)-1-hydroxy-2-methylpropan-2-yl)piperidin-1-yl)-2-(pyrrolidin-1-yl)ethan-1-one]
9 | 0.0001 to 10 | 0.0001 to 10 | 0.0001 to 10 | 0.0001 to 10 | COCCONC(=O)N1CCC(C(C)(C)[C@H](O)c2cc(Cl)cc3cn[nH]c23)CC1 [Compound P-0062, (S)-4-(1-(5-chloro-1H-indazol-7-yl)-1-hydroxy-2-methylpropan-2-yl)-N-(2-methoxyethoxy)piperidine-1-carboxamide]
10 | 0.0001 to 10 | 0.0001 to 10 | 0.0001 to 10 | 0.0001 to 10 | CN(C)CCONC(=O)N1CCC(C(C)(C)[C@H](O)c2cc(Cl)cc3cn[nH]c23)CC1 [Compound P-0063, (S)-4-(1-(5-chloro-1H-indazol-7-yl)-1-hydroxy-2-methylpropan-2-yl)-N-(2-(dimethylamino)ethoxy)piperidine-1-carboxamide]
11 | 0.0001 to 10 | 0.0001 to 10 | 0.0001 to 10 | 0.0001 to 10 | CC(C)ONC(=O)N1CCC(C(C)(C)[C@H](O)c2cc(Cl)cc3cn[nH]c23)CC1 [Compound P-0064, (S)-4-(1-(5-chloro-1H-indazol-7-yl)-1-hydroxy-2-methylpropan-2-yl)-N-isopropoxypiperidine-1-carboxamide]
12 | 0.0001 to 10 | 0.0001 to 10 | 0.0001 to 10 | 0.0001 to 10 | CC(C)(C1CCN(C(=O)NOCC(F)(F)F)CC1)[C@H](O)c1cc(Cl)cc2cn[nH]c12 [Compound P-0065, (S)-4-(1-(5-chloro-1H-indazol-7-yl)-1-hydroxy-2-methylpropan-2-yl)-N-(2,2,2-trifluoroethoxy)piperidine-1-carboxamide]
13 | 0.0001 to 10 | 0.0001 to 10 | 0.0001 to 10 | 0.0001 to 10 | CC(C)(C1CCN(C(=O)NOc2ccccc2)CC1)[C@H](O)c1cc(Cl)cc2cn[nH]c12 [Compound P-0066, (S)-4-(1-(5-chloro-1H-indazol-7-yl)-1-hydroxy-2-methylpropan-2-yl)-N-phenoxypiperidine-1-carboxamide]
14 | 0.0001 to 10 | 0.0001 to 10 | 0.0001 to 10 | 0.0001 to 10 | CC(C)(N)C(=O)N1CCC(C(C)(C)[C@H](O)c2cc(Cl)cc3cn[nH]c23)CC1 [Compound P-0067, (S)-2-amino-1-(4-(1-(5-chloro-1H-indazol-7-yl)-1-hydroxy-2-methylpropan-2-yl)piperidin-1-yl)-2-methylpropan-1-one]
15 | 0.0001 to 10 | 0.0001 to 10 | 0.0001 to 10 | 0.0001 to 10 | CCCS(=O)(=O)N1CCC(C(C)(C)C(O)c2cc(Cl)cc3[nH]ncc23)CC1 (centres unmarked) [Compound P-0071]
16 | 0.0001 to 10 | 0.0001 to 10 | > 10 | 0.0001 to 10 | CCS(=O)(=O)N1CCC(C(C)(C)C(O)c2cc(Cl)cc3[nH]ncc23)CC1 (centres unmarked) [Compound P-0072, 1-(6-chloro-1H-indazol-4-yl)-2-(1-(ethylsulfonyl)piperidin-4-yl)-2-methylpropan-1-ol]
17 | 0.0001 to 10 | 0.0001 to 10 | > 10 | 0.0001 to 10 | CC(C)(C1CCN(S(=O)(=O)C2CC2)CC1)C(O)c1cc(Cl)cc2[nH]ncc12 (centres unmarked) [Compound P-0073, 1-(6-chloro-1H-indazol-4-yl)-2-(1-(cyclopropylsulfonyl)piperidin-4-yl)-2-methylpropan-1-ol]
18 | 0.0001 to 10 | 0.0001 to 10 | 0.0001 to 10 | 0.0001 to 10 | CC(C)NC(=O)N1CCC(C(C)(C)C(O)c2cc(Cl)cc3[nH]ncc23)CC1 (centres unmarked) [Compound P-0074, 4-(1-(6-chloro-1H-indazol-4-yl)-1-hydroxy-2-methylpropan-2-yl)-N-isopropylpiperidine-1-carboxamide]
19 | 0.0001 to 10 | 0.0001 to 10 | > 10 | 0.0001 to 10 | CC(C)(C1CCN(C(=O)Nc2cccnc2)CC1)C(O)c1cc(Cl)cc2[nH]ncc12 (centres unmarked) [Compound P-0075, 4-(1-(6-chloro-1H-indazol-4-yl)-1-hydroxy-2-methylpropan-2-yl)-N-(pyridin-3-yl)piperidine-1-carboxamide]
20 | 0.0001 to 10 | 0.0001 to 10 | 0.0001 to 10 | 0.0001 to 10 | CCNC(=O)N1CCC(C(C)(C)C(O)c2cc(Cl)cc3[nH]ncc23)CC1 (centres unmarked) [Compound P-0076, 4-(1-(6-chloro-1H-indazol-4-yl)-1-hydroxy-2-methylpropan-2-yl)-N-ethylpiperidine-1-carboxamide]
